# “Also recorded” adds a separate entry of the source. Residues, ends and D or L forms follow the SMILES beside them.
# T1: human TRPV6 channels (Homo sapiens, UniProt Q9H1D0)
# T1 construct: containing cDNA for the protein-coding region of TRPV6; expressed in transfected cells; host or cells: HEK-293 cells transiently transfected with pdi-CaT-L (pCAGGS backbone, gift of V. Flockerzi)
# T1 sequence (Q9H1D0 41-765 limits assumed): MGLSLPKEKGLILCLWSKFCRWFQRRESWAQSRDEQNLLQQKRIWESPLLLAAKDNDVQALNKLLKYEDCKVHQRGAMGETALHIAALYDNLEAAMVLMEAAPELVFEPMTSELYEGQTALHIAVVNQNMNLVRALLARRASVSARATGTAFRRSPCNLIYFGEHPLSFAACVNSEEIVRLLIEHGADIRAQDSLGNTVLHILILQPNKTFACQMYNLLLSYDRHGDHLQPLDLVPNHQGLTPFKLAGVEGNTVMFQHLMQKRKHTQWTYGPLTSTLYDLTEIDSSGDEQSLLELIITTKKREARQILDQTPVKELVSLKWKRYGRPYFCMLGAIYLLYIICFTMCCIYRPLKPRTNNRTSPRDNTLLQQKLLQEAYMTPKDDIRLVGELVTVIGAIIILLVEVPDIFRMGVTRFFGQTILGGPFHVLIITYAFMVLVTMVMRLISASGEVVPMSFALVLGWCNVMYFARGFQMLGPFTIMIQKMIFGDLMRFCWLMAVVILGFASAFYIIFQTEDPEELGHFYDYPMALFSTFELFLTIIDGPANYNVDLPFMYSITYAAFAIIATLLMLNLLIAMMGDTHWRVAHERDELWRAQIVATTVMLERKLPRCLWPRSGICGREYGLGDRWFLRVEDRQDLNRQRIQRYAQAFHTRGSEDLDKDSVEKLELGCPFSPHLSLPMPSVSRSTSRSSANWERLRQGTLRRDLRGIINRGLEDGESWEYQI
# T2: SOR-C27 (soricidin C-terminal peptide) (Blarina brevicauda)
# T2 chain: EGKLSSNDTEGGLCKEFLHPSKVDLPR
# T3: SOR-C13 (soricidin C-terminal peptide) (Blarina brevicauda)
# T3 chain: KEFLHPSKVDLPR
# B1: TRPV6 (protein)
# chain: MGPLQGDGGPALGGADVAPRLSPVRVWPRPQAPKEPALHPMGLSLPKEKGLILCLWSKFCRWFQRRESWAQSRDEQNLLQQKRIWESPLLLAAKDNDVQALNKLLKYEDCKVHQRGAMGETALHIAALYDNLEAAMVLMEAAPELVFEPMTSELYEGQTALHIAVVNQNMNLVRALLARRASVSARATGTAFRRSPCNLIYFGEHPLSFAACVNSEEIVRLLIEHGADIRAQDSLGNTVLHILILQPNKTFACQMYNLLLSYDRHGDHLQPLDLVPNHQGLTPFKLAGVEGNTVMFQHLMQKRKHTQWTYGPLTSTLYDLTEIDSSGDEQSLLELIITTKKREARQILDQTPVKELVSLKWKRYGRPYFCMLGAIYLLYIICFTMCCIYRPLKPRTNNRTSPRDNTLLQQKLLQEAYMTPKDDIRLVGELVTVIGAIIILLVEVPDIFRMGVTRFFGQTILGGPFHVLIITYAFMVLVTMVMRLISASGEVVPMSFALVLGWCNVMYFARGFQMLGPFTIMIQKMIFGDLMRFCWLMAVVILGFASAFYIIFQTEDPEELGHFYDYPMALFSTFELFLTIIDGPANYNVDLPFMYSITYAAFAIIATLLMLNLLIAMMGDTHWRVAHERDELWRAQIVATTVMLERKLPRCLWPRSGICGREYGLGDRWFLRVEDRQDLNRQRIQRYAQAFHTRGSEDLDKDSVEKLELGCPFSPHLSLPMPSVSRSTSRSSANWERLRQGTLRRDLRGIINRGLEDGESWEYQI
# Tests used:
# [1] = target: T1, human TRPV6 channels; experiment: whole-cell patch clamp of TRPV6/EGFP transfected HEK-293 cells; type: cell-based; conditions: for reduction of TRPV6 current amplitude / reduction of maximum TRPV6 current amplitude: p<0.05; for reduction of maximum TRPV6 current amplitude: n = 5, successive exposures; for Kd: washout not possible under voltage ramp stimulation, Kd estimated, read-out: K1 (Kd estimated to be equal to K1)
# Description: Human HEK-293 cells (6–9 passages) were plated in a 24-well plate at a density of 5×10^5 cells per well, 24 hours before transfection. Each well was diluted in serum-free medium and incubated for 5 minutes at room temperature then combined slowly and incubated at room temperature. After a 20 minute incubation, cells were exposed to the transfection complex consisting of 0.5 µg of pdi-CaT-L plasmid DNA (a gift from Dr. V. Flockerzi, Experimentelle und Klinische Pharmakologie und Toxikologie der Universität des Saarlandes) and 1.5 µl lipofectamine 2000 reagent. pdi-CaT-L is a bicistronic expression vector containing cDNA for the protein-coding region of TRPV6 and the mutated Green Fluorescent Protein (S65T; EGPF) separated by an […] (β-actin promoter /KOZAK/TRPV6/IRES/EGFP in pCAGGS). The IRES was derived from encephalomyocarditis virus. Transfection of HEK-293 cells with the bicistronic vector allows for simultaneous production of TRPV6 and EGFP and selection of fluorescent cells producing TRPV6 for the electrophysiology measurements. From previous investigations using this plasmid and other similar plasmids, it was determined that the TRPV6 channel is highly expressed, localized at the membrane surface, glycosylated and constitutively active giving rise to a Ca^2+-invoked inward current [33]–[35].
# Whole-cell patch clamp recordings were performed on HEK-293 cells expressing TRPV6 and EGFP. Transfected cells were readily identified from non-transfected cells using a fluorescent Axiovert 135 microscope […]. The recordings were performed using an Axopatch 1D amplifier controlled and monitored using pClamp 9 software (MDS Analytical Technologies, Sunnyvale, CA, USA). Data sets were digitized at 20 kHz and filtered at 2 kHz. […] The extracellular solution contained: 145 mM NaCl, 10 mM CsCl, 10 mM CaCl2, 2 mM MgCl2, 2.8 mM KCl, 10 mM HEPES and 10 mM glucose with pH adjusted to 7.2 using NaOH.
# To isolate TRPV6 currents, HEK-293 and transfected HEK-293 cells were voltage-clamped at +50 mV with a 50 ms linear voltage ramp (−110 mV to +90 mV) protocol applied in the presence or absence of a TRPV6 inhibitor, La^3+ ions (10 µM), SOR-C27, SOR-C13 or SOR-C27-Cy5.5. Although the La^3+ ion is a non-specific inhibitor there is currently no known selective inhibitor of the TRPV6 channel. The ramp was averaged over 10 times at 2 s intervals between ramps.
# Analysis was performed off-line using IGOR (WaveMetrics Inc., Lake Oswego, OR, USA) software. The statistical significance was determined with paired Students' t-test (two-tailed). All values are expressed as mean ± SEM with a p-value of <0.05 considered significant.
# [2] = test system: HEK-293 cells transfected with TRPV6; conditions: low doses; cited from earlier work
# Text: (§1) The link between tumor growth and over-expression of TRPV6 may involve the potentiation of calcium-dependent cell proliferation and inhibition of apoptosis. […] In the LNCaP prostate cancer cell line, up-regulation of TRPV6 augments proliferation and cell survival while retarding apoptosis through a mechanism that appears to involve activation of the nuclear factor of activated T-cell (NFAT) transcription ...
# [3] = solubility in NMR samples; type: physicochemical; conditions: 10 mM in 90/10 H2O/D2O, 50 mM potassium phosphate pH 6.6; with 200 mM NaCl; with 100 mM DPC; 2 mM with 100 mM SDS; visual statement, 274 to 308 K
# Description: Nuclear magnetic resonance (NMR) spectroscopic data was acquired to determine the conformational structural features of the SOR-C27 peptide under various conditions. A stock solution (sample #1) of 10 mM SOR-C27 was prepared in 90/10 H2O/D2O with 50 mM potassium phosphate buffer at pH 6.6. From sample #1, three additional samples were prepared: #2) stock solution with 200 mM NaCl, #3) stock solution with 100 mM dodecylphosphocholine (DPC) and #4) stock solution diluted to 2 mM with 100 mM sodium dodecylsulfate (SDS).
# [4] = test system: TRPV6 channels; conditions: cited from earlier work
# Text: Herein, we described the TRPV6 binding properties of SOR-C13 and SOR-C27 and the ability of these peptides to target human ovarian tumors in ...
# [5] = Table 1; no reference given; cited from earlier work
# Text: Table 1 Amino acid sequences of parent soricidin (accession number P0C2P6), SOR-C27 and SOR-C13. | column: Activity
# [6] = test system: TRPV6; conditions: breast cancer cells; cited from earlier work
# Text: as §1
# [7] = target: T2, SOR-C27 (soricidin C-terminal peptide); experiment: whole-cell patch clamp
# [8] = target: T3, SOR-C13 (soricidin C-terminal peptide); experiment: whole-cell patch clamp
molecule,measurement,setting,value
CC(C)C[C@H](NC(=O)[C@H](Cc1ccccc1)NC(=O)[C@H](CCC(=O)O)NC(=O)[C@@H](N)CCCCN)C(=O)N[C@@H](Cc1c[nH]cn1)C(=O)N1CCC[C@H]1C(=O)N[C@@H](CO)C(=O)N[C@@H](CCCCN)C(=O)N[C@H](C(=O)N[C@@H](CC(=O)O)C(=O)N[C@@H](CC(C)C)C(=O)N1CCC[C@H]1C(=O)N[C@@H](CCCNC(=N)N)C(=O)O)C(C)C [SOR-C13] (H-KEFLHPSKVDLPR-OH),reduction of TRPV6 current amplitude,"[1]; 83.5 nM, n = 9, mean ± SEM",18±4.0%
same,reduction of TRPV6 current amplitude,"[1]; 417.5 nM, n = 9, mean ± SEM",22±4%
same,reduction of TRPV6 current amplitude,"[1]; 835 nM, n = 7, mean ± SEM",24±4%
same,reduction of TRPV6 current amplitude,"[1]; 25 µM, n = 7, mean ± SEM",25±5%
Clc1ccc(COC(Cn2ccnc2)c2ccc(Cl)cc2Cl)cc1 (stereo not drawn) [econazole],effect on calcium inflow signals and cell proliferation,[2],reduced both calcium inflow signals and cell proliferation
CC(C)C[C@H](NC(=O)CNC(=O)CNC(=O)[C@H](CCC(=O)O)NC(=O)[C@@H](NC(=O)[C@H](CC(=O)O)NC(=O)[C@H](CC(N)=O)NC(=O)[C@H](CO)NC(=O)[C@H](CO)NC(=O)[C@H](CC(C)C)NC(=O)[C@H](CCCCN)NC(=O)CNC(=O)[C@@H](N)CCC(=O)O)[C@@H](C)O)C(=O)N[C@@H](CS)C(=O)N[C@@H](CCCCN)C(=O)N[C@@H](CCC(=O)O)C(=O)N[C@@H](Cc1ccccc1)C(=O)N[C@@H](CC(C)C)C(=O)N[C@@H](Cc1c[nH]cn1)C(=O)N1CCC[C@H]1C(=O)N[C@@H](CO)C(=O)N[C@@H](CCCCN)C(=O)N[C@H](C(=O)N[C@@H](CC(=O)O)C(=O)N[C@@H](CC(C)C)C(=O)N1CCC[C@H]1C(=O)N[C@@H](CCCNC(=N)N)C(=O)O)C(C)C [SOR-C27] (H-EGKLSSNDTEGGLCKEFLHPSKVDLPR-OH),solubility,[3],completely soluble in all solutions and under all conditions
same,reduction of maximum TRPV6 current amplitude,"[1]; 65.2 nM, mean ± SEM",17±4%
same,reduction of maximum TRPV6 current amplitude,"[1]; 326 nM, mean ± SEM",27±5%
same,reduction of maximum TRPV6 current amplitude,"[1]; 652 nM, mean ± SEM",31±5%
same,reduction of maximum TRPV6 current amplitude,"[1]; 20 µM, mean ± SEM",34±5%
same,Kd,[1],65 ± 1 nM
same,IC50,"[1]; whole-cell patch clamp, 50 ms voltage ramp -110 to +90 mV, dose-response curve, mean ± SEM, b62/b63, read-out: IC50 (Kd) for reduction of TRPV6 current amplitude",65 ± 1 nM
DCSQDCAACSILARPAELNTETCILECEGKLSSNDTEGGLCKEFLHPSKVDLPR [Soricidin],inhibition of TRPV6 calcium channels / calcium uptake,[4],found to inhibit the transient receptor potential of vallinoid type 6 (TRPV6) calcium channels; also recorded: inhibit calcium uptake via TRPV6 channels
same,Activity,[5],Pain/ Cancer
CC(C)C[C@H](NC(=O)[C@H](Cc1ccccc1)NC(=O)[C@H](CCC(=O)O)NC(=O)[C@@H](N)CCCCN)C(=O)N[C@@H](Cc1cnc[nH]1)C(=O)N1CCC[C@H]1C(=O)N[C@@H](CO)C(=O)N[C@@H](CCCCN)C(=O)N[C@H](C(=O)N[C@@H](CC(=O)O)C(=O)N[C@@H](CC(C)C)C(=O)N1CCC[C@H]1C(=O)N[C@@H](CCCNC(=N)N)C(=O)O)C(C)C [SOR-C13] (H-KEFLHPSKVDLPR-OH),Kd,[1],14 ± 1.3 nM
CC/C(=C(\c1ccccc1)c1ccc(OCCN(C)C)cc1)c1ccccc1 [tamoxifen],effect on TRPV6 expression and calcium signaling,[6],reduces expression of TRPV6 and calcium signaling
B1,Kd,[7],65 nM
same,Kd,[8],14 nM

# — article PMC3598914, “In Vivo Detection of Human TRPV6-Rich Tumors with Anti-Cancer Peptides Derived from Soricidin” (PLoS ONE, 2013)
